Source: US20020187123A1, “Therapeutic compositions and methods for the inhibition of angiogenesis” (priority 2001, published 2002)

Legend:
[1] = tested on: isolated, cultured human endothelial cells; assay: Endostatin responsiveness of isolated, cultured human endothelial cells; type: cell-based
[2] = tested on: tumor growth; conditions: mouse model; cited from earlier work
[3] = tested on: VEGF-stimulated endothelial vessel formation by aortic endothelium; assay: Aortic ring explant assay of endothelial vessel morphogenesis; type: cell-based; conditions: aortae of wild type mice
Text: The results described above were extended using an aortic ring explant assay of endothelial vessel morphogenesis. […] The more rapid and extensive growth in E-selectin deficient aortae is therefore consistent with the hypothesis that E-selectin is required for endostatin activity.

[4] = tested on: bFGF-stimulated corneal angiogenesis; assay: Corneal angiogenesis assay; type: in vivo, mice; conditions: delivered by intraperitoneal osmotic pump
Text: The effect of endostatin on bFGF-stimulated corneal angiogenesis was examined in wild type and E-selectin deficient mice.

tumor necrosis factor-alpha
effect on endostatin responsiveness ([1]; isolated cultured human endothelial cells, even in the presence of E-selectin): appears to block and/or prevent endostatin responsiveness

endostatin
effect on tumor growth [2]: dramatic reduction in tumor growth
effect on vessel formation [3]: vessel formation was inhibited
effect on FGF-stimulated corneal angiogenesis ([4]; E-selectin deficient mice): not in the E-selectin deficient mice
effect on FGF-stimulated corneal angiogenesis ([4]; wild type mice): inhibited FGF-stimulated angiogenesis

B1: E-selectin (protein, UniProt P16581 22-610, looked up)
E-selectin: WSYNTSTEAMTYDEASAYCQQRYTHLVAIQNKEEIEYLNSILSYSPSYYWIGIRKVNNVWVWVGTQKPLTEEAKNWAPGEPNNRQKDEDCVEIYIKREKDVGMWNDERCSKKKLALCYTAACTNTSCSGHGECVETINNYTCKCDPGFSGLKCEQIVNCTALESPEHGSLVCSHPLGNFSYNSSCSISCDRGYLPSSMETMQCMSSGEWSAPIPACNVVECDAVTNPANGFVECFQNPGSFPWNTTCTFDCEEGFELMGAQSLQCTSSGNWDNEKPTCKAVTCRAVRQPQNGSVRCSHSPAGEFTFKSSCNFTCEEGFMLQGPAQVECTTQGQWTQQIPVCEAFQCTALSNPERGYMNCLPSASGSFRYGSSCEFSCEQGFVLKGSKRLQCGPTGEWDNEKPTCEAVRCDAVHQPPKGLVRCAHSPIGEFTYKSSCAFSCEEGFELHGSTQLECTSQGQWTEEVPSCQVVKCSSLAVPGKINMSCSGEPVFGTVCKFACPEGWTLNGSAARTCGATGHWSGLLPTCEAPTESNIPLVAGLSAAGLSLLTLAPFLLWLRKCLRKAKKFVPASSCQSLESDGSYQKPSYIL
notes: a cell surface glycoprotein expressed by the endothelium
effect on endostatin responsiveness ([1]; isolated, cultured human endothelial cells): can be sufficient to confer endostatin responsiveness
